Experimental data from US20260108527A1, “POLO LIKE KINASE 4 INHIBITORS” (ORIC Pharmaceuticals, Inc., priority 2022, published 2026).

How the values were obtained:
[1] = tested on: CHP134; test: CHP134 CellTiter-Glo (CTG) Assay; type: cell-based; conditions: Homo sapiens, CHP-134, 120 h; viable cells by CellTiter-Glo after 5 days
Description: […] cells (DSMZ-German Collection of Microorganisms and Cell Cultures, Braunschweig Germany) were cultured in RPMI 1640 supplemented with 10% fetal bovine serum, penicillin (100 U/ml), 1% L-Glutamine and streptomycin ([…]). Cells were seeded (200 cells/well) in 384-well plates for 16 hours. On day two, nine serial 1:3 compound dilutions were made in DMSO in a 96-well plate. The compounds were then further diluted into growth media using a BRAVO robot (Agilent, Santa Clara, CA). The diluted compounds were then added to quadruplicate wells in the 384-well cell plate and incubated at 37° C. and 5% CO2. After 5 days, relative numbers of viable cells were measured by luminescence using CellTiter-Glo® (Promega) according to the manufacturer's instructions and read on a SPARK Multimode Microplate Reader (Tecan, Mannedorf Switzerland). The IC50 calculations for the values reported in Table 2 were carried out using Prism 6.0 software (GraphPad, San Diego).

[2] = target: T1, human recombinant Aurora B (Homo sapiens, UniProt Q96GD4); test: Aurora B Kinase Biochemical Assay (ADP-Glo); conditions: selectivity ratio; Aurora B 10 nM, 114 μM ATP
T1 construct: purchased ThermoFisher PR9210B
Description: Activity of human recombinant Aurora B (ThermoFisher, cat #PR9210B) was measured by quantification of adenosine diphosphate (ADP) using the ADP-Glo Kinase Assay Kit (Promega, cat #V9102). Test compounds were solubilized in dimethyl sulfoxide (DMSO) and dispensed into 384-well white polystyrene nonbinding plates (Greiner, cat #781094) using the Echo acoustic dispenser (Labcyte Inc.) in a 11-point 3-fold titration in duplicates. 5 μL of 20 nM Aurora B in assay buffer (50 mM HEPES, pH 7.5, 0.01% Brij-35, 0.01% BSA, 10 mM MgCl2, 1 mM EGTA, 1 mM DTT) was added to the plates. Test compounds and Aurora B were incubated for 15 minutes at room temperature (RT). Then 5 μL of a 228 μM adenosine triphosphate (ATP) (Promega, cat #V915B) and 9.3 μM Myelin Basic Protein (MBP) (SignalChem, cat #M42-51N) substrate solution in assay buffer was added and the reaction mixture was incubated for 2 hours at RT. The final concentration of Aurora b, ATP and MBP in the reactions were 10 nM, 114 μM and 4.7 μM, respectively. Reactions were stopped and the remaining ATP depleted by adding 10 μL of ADP-Glo reagent (Promega, cat #V912B) and incubating for 40 minutes at RT. The simultaneous conversion of the remaining ADP to ATP and measurement of the newly synthesized ATP was achieved by addition of 20 μL Kinase Detection reagent (Promega, cat #V9141B), incubation for 30 min at RT, and luminescence detection using the EnVision plate reader (PerkinElmer). Reactions lacking Aurora B were used as […]. Reactions containing DMSO alone were used as […]. The IC50 values reported in Table 2 were determined using four parameter non-linear regression curve fit.

[3] = target: T2, human recombinant Aurora A (Homo sapiens, UniProt O14965); test: Aurora A Kinase Biochemical Assay (ADP-Glo); conditions: selectivity ratio; Aurora A 2.5 nM, 20 μM ATP
T2 construct: purchased ThermoFisher PR5935A
T2 sequence (O14965 1-403): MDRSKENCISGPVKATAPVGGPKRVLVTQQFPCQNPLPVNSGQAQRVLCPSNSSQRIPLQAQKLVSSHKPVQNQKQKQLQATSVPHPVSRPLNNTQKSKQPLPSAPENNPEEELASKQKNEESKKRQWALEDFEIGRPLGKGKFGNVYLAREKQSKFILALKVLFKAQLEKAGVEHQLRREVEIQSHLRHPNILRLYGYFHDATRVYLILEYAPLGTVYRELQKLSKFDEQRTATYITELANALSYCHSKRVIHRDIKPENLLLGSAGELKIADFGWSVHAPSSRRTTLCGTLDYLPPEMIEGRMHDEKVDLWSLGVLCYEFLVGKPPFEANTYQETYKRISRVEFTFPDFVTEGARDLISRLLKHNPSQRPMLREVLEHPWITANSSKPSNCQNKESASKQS
Description: Activity of human recombinant Aurora A (ThermoFisher, cat #PR5935A) was measured by quantification of adenosine diphosphate (ADP) using the ADP-Glo Kinase Assay Kit (Promega, cat #V9102). Test compounds were solubilized in dimethyl sulfoxide (DMSO) and dispensed into 384-well white polystyrene nonbinding plates (Greiner, cat #781094) using the Echo acoustic dispenser (Labcyte Inc.) in a 11-point 3-fold titration in duplicates. 5 μL of 5.0 nM Aurora A in assay buffer (50 mM HEPES, pH 7.5, 0.01% Brij-35, 0.01% BSA, 10 mM MgCl2, 1 mM EGTA, 1 mM DTT) was added to the plates. Test compounds and Aurora A were incubated for 15 minutes at room temperature (RT). Then 5 μL of a 40 μM adenosine triphosphate (ATP) (Promega, cat #V915B) and 9.3 μM Myelin Basic Protein (MBP) (SignalChem, cat #M42-51N) substrate solution in assay buffer was added and the reaction mixture was incubated for 2 hours at RT. The final concentration of Aurora A, ATP and MBP in the reactions were 2.5 nM, 20 μM and 4.7 μM, respectively. Reactions were stopped and the remaining ATP depleted by adding 10 μL of ADP-Glo reagent (Promega, cat #V912B) and incubating for 40 minutes at RT. The simultaneous conversion of the remaining ADP to ATP and measurement of the newly synthesized ATP was achieved by addition of 20 μL Kinase Detection reagent (Promega, cat #V914B), incubation for 30 min at RT, and luminescence detection using the EnVision plate reader (PerkinElmer). Reactions lacking Aurora A were used as 100% inhibition controls. Reactions containing DMSO alone were used as 0% inhibition controls. The IC50 values reported in Table 2 were determined using four parameter non-linear regression curve fit.

T1 sequence (Q96GD4 whole entry): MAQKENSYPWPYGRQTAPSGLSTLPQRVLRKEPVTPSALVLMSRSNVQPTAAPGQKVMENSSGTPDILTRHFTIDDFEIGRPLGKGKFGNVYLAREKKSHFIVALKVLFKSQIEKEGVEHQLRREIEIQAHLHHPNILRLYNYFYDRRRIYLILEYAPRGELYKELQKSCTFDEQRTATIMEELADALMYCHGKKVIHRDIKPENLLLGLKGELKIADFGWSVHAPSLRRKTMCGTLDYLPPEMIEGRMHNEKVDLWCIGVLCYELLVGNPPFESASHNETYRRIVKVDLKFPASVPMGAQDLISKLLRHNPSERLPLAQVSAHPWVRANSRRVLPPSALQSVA

| [Aurora B IC50 (nM)]/[PLK4 IC50 (nM)] [2] | [Aurora A IC50 (nM)]/[PLK4 IC50 (nM)] [3] | Compound | IC50 [1] |
| --- | --- | --- | --- |
| 791.6196 | 2164 | COc1ccc2c(c1)[C@]1(C[C@H]1c1ccc3c(Nc4cc5c(cc4OC)S(=O)(=O)CC5)n[nH]c3c1)C(=O)N2 [Example 1, 6-methoxy-5-({6-[(1R,2S)-5′-methoxy-2′-oxo-1′,2′-dihydrospiro[cyclopropane-1,3′-indol]-2-yl]-1H-indazol-3-yl}amino)-2,3-dihydro-1H-1-benzothiophene-1,1-dione] | 242 nM |
| 256.2681 | 1671.3768 | COc1ccc2c(c1)[C@]1(C[C@H]1c1ccc3c(Nc4ccc(C(C)=O)cc4OC)n[nH]c3c1)C(=O)N2 [Example 3, (1R,2S)-2-[3-(4-acetyl-2-methoxyanilino)-1H-indazol-6-yl]-5′-methoxyspiro[cyclopropane-1,3′-indol]-2′(1′H)-one] | 308 nM |
| 549.2668 | 538.2697 | COc1ccc2c(c1)[C@]1(C[C@H]1c1ccc3c(Nc4nc(-c5ncco5)ccc4OC)n[nH]c3c1)C(=O)N2 [Example 4, (1R,2S)-5′-methoxy-2-(3-{[3-methoxy-6-(1,3-oxazol-2-yl)pyridin-2-yl]amino}-1H-indazol-6-yl)spiro[cyclopropane-1,3′-indol]-2′(1′H)-one] | 53.1 nM |
| 396.7684 | 2540.3949 | CCOc1cc(-n2cncn2)ccc1Nc1n[nH]c2cc([C@@H]3C[C@@]34C(=O)Nc3ccc(OC)cc34)ccc12 [Example 10, (1R,2S)-2-{3-[2-ethoxy-4-(1H-1,2,4-triazol-1-yl)anilino]-1H-indazol-6-yl}-5′-methoxyspiro[cyclopropane-1,3′-indol]-2′(1′H)-one] | 120 nM |
| 1051.5384 | 897.6923 | COc1ccc2c(c1)[C@]1(C[C@H]1c1ccc3c(Nc4cc(-c5cnn(C)c5)ccc4OC)n[nH]c3c1)C(=O)N2 [Example 11, (1R,2S)-5′-methoxy-2-{3-[2-methoxy-5-(1-methyl-1H-pyrazol-4-yl)anilino]-1H-indazol-6-yl}spiro[cyclopropane-1,3′-indol]-2′(1′H)-one] | 110 nM |
| 810 | 630 | CCOc1cc2c(ccc[n+]2[O-])cc1Nc1n[nH]c2cc([C@@H]3C[C@@]34C(=O)Nc3ccc(OC)cc34)ccc12 [Example 12, 7-ethoxy-6-((6-((1R,2S)-5′-methoxy-2′-oxospiro[cyclopropane-1,3′-indolin]-2-yl)-1H-indazol-3-yl)amino)quinoline 1-oxide] | 1100 nM |
| 1120.7692 | 414.8 | COc1ccc2c(c1)[C@]1(C[C@H]1c1ccc3c(Nc4cc(-c5ncco5)ccc4OC)n[nH]c3c1)C(=O)N2 [Example 13, (1R,2S)-5′-methoxy-2-{3-[2-methoxy-5-(1,3-oxazol-2-yl)anilino]-1H-indazol-6-yl}spiro[cyclopropane-1,3′-indol]-2′(1′H)-one] | 348 nM |
| 511.8461 | 146.5230 | COc1ccc2c(c1)[C@]1(C[C@H]1c1ccc3c(Nc4cc(-c5cscn5)ccc4OC)n[nH]c3c1)C(=O)N2 [Example 15, (1R,2S)-5′-methoxy-2-{3-[2-methoxy-5-(1,3-thiazol-4-yl)anilino]-1H-indazol-6-yl}spiro[cyclopropane-1,3′-indol]-2′(1′H)-one] | 93.8 nM |

The next lines start with the compound.

| Compound | [Aurora B IC50 (nM)]/[PLK4 IC50 (nM)] [2] | [Aurora A IC50 (nM)]/[PLK4 IC50 (nM)] [3] | IC50 [1] |
| --- | --- | --- | --- |
| COc1ccc2c(c1)[C@]1(C[C@H]1c1ccc3c(Nc4ccc(S(C)(=O)=O)cc4OC)n[nH]c3c1)C(=O)N2 [Example 2, (1R,2S)-2-{3-[4-(methanesulfonyl)-2-methoxyanilino]-1H-indazol-6-yl}-5′-methoxyspiro[cyclopropane-1,3′-indol]-2′(1′H)-one] | 229.2462 | 801.1462 | 88.9 nM |
| CCS(=O)(=O)c1ccc(Nc2n[nH]c3cc([C@@H]4C[C@@]45C(=O)Nc4ccc(OC)cc45)ccc23)c(OC)c1 [Example 5, (1R,2S)-2-{3-[4-(ethanesulfonyl)-2-methoxyanilino]-1H-indazol-6-yl}-5′-methoxyspiro[cyclopropane-1,3′-indol]-2′(1′H)-one] | 238.2702 | 567.6936 | 39.1 nM |
| COc1ccc2c(c1)[C@]1(C[C@H]1c1ccc3c(Nc4cc5c(cc4OC)S(=O)(=O)C=C5)n[nH]c3c1)C(=O)N2 [Example 6, 6-methoxy-5-({6-[(1R,2S)-5′-methoxy-2′-oxo-1′,2′-dihydrospiro[cyclopropane-1,3′-indol]-2-yl]-1H-indazol-3-yl}amino)-1H-1-benzothiophene-1,1-dione] | 427.6412 | 581.0754 | 39.4 nM |
| CCOc1cc(-c2cnccn2)ccc1Nc1n[nH]c2cc([C@@H]3C[C@@]34C(=O)Nc3ccc(OC)cc34)ccc12 [Example 7, (1R,2S)-2-{3-[2-ethoxy-4-(pyrazin-2-yl)anilino]-1H-indazol-6-yl}-5′-methoxyspiro[cyclopropane-1,3′-indol]-2′(1′H)-one] | 702.6392 | 10956.01173 | 166 nM |
| CCOc1cc2ccccc2nc1Nc1n[nH]c2cc([C@@H]3C[C@@]34C(=O)Nc3ccc(OC)cc34)ccc12 [Example 8, (1R,2S)-2-{3-[(3-ethoxyquinolin-2-yl)amino]-1H-indazol-6-yl}-5′-methoxyspiro[cyclopropane-1,3′-indol]-2′(1′H)-one] | 1829.1347 | 27382.2563 | 490 nM |
| COc1ccc2c(c1)[C@]1(C[C@H]1c1ccc3c(Nc4cc(-c5nccs5)ccc4OC)n[nH]c3c1)C(=O)N2 [Example 14, (1R,2S)-5′-methoxy-2-{3-[2-methoxy-5-(1,3-thiazol-2-yl)anilino]-1H-indazol-6-yl}spiro[cyclopropane-1,3′-indol]-2′(1′H)-one] | 897.1830 | 187.4804 | 88.7 nM |
